This experiment deals with hT2R8 (Homo sapiens (Human), UniProt Q9NYW2). The experiment in a line: hT2R8 antagonist high-throughput FLIPR assay, stable cell line with G16g44, agonist andrographolide. It is filed as cell-based. A digest of the protocol: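 Antagonist screen: compounds co-applied with agonist andrographolide at 200 μM, a dose giving 70–80% of maximal hT2R8 activation. Fluorescence measured by FLIPR in a stable HEK293 line expressing both hT2R8 and the promiscuous G16g44 protein.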

The mark [1] stands for this setting: table after Example 10-97, read-out: hT2R8 IC50.
Where [2] appears, read: unit uM, read-out: IC50 on hT2R08 bitter receptor.
Setting [3] is: read-out: IC50 on hT2R8 bitter receptor.

As usually defined, the IC50 is the concentration needed to halve the response being measured.

Read-outs that look alike come from different tables or passages of the source.

Sequence of hT2R8 (Q9NYW2 whole entry): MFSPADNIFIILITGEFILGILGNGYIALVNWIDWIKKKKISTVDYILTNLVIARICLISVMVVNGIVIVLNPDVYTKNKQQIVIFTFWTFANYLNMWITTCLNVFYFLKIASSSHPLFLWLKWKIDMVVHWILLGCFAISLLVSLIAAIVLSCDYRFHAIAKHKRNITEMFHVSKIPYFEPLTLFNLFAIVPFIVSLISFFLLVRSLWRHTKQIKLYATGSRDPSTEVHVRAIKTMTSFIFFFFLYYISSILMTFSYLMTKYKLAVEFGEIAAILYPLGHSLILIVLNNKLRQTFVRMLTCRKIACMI

Regarding `Cc1noc(C)c1Cn1cc(N2C(=O)CN(Cc3ccc4c(c3)OCO4)C2=O)cn1` [Example 10-36, 1-(benzo[d][1,3]dioxol-5-ylmethyl)-3-(1-((3,5-dimethylisoxazol-4-yl)methyl)-1H-pyrazol-4-yl)imidazolidine-2,4-dione], the IC50 reads like this: under setting [1], 0.053 µM; under setting [2], 0.07 µM.
On the same counts, the results for `Cc1noc(C)c1Cn1cc(N2C(=O)CN(Cc3cccc(CN(C)C)c3)C2=O)cn1` [Example 10-37, 1-(3-((dimethylamino)methyl)benzyl)-3-(1-((3,5-dimethylisoxazol-4-yl)methyl)-1H-pyrazol-4-yl)imidazolidine-2,4-dione] are 1.22 µM and 1.2 µM.
On to `Cc1noc(C)c1Cn1cc(N2C(=O)CN(Cc3ccn(C)n3)C2=O)cn1` [Example 10-38, 3-(1-((3,5-dimethylisoxazol-4-yl)methyl)-1H-pyrazol-4-yl)-1-((1-methyl-1H-pyrazol-3-yl)methyl)imidazolidine-2,4-dione], for which the IC50 worked out at 0.363 µM under setting [1] and 0.4 µM under setting [2].
As for `COc1cccc(C(=O)Nc2nnn(Cc3c(C)noc3C)n2)c1` [Example 10-39, N-(2-((3,5-dimethylisoxazol-4-yl)methyl)-2H-tetrazol-5-yl)-3-methoxybenzamide], the IC50 under setting [3] was determined as 1.87 µM.
For `Cc1noc(C)c1Cn1cnc(NC(=O)c2ccc3c(c2)OCO3)c1` [Example 10-40, N-(1-((3,5-dimethylisoxazol-4-yl)methyl)-1H-imidazol-4-yl)benzo[d][1,3]dioxole-5-carboxamide], the IC50 under setting [3] came out at 12.1 µM.
With `Cc1noc(C)c1Cn1cc(N2C(=O)NC(C)C2=O)cn1` (stereo not shown) [Example 10-41, 3-(1-((3,5-dimethylisoxazol-4-yl)methyl)-1H-pyrazol-4-yl)-5-methylimidazolidine-2,4-dione], the IC50 worked out at 1.3 µM under setting [3] and 1.28 µM under setting [1].
As for `Cc1noc(C)c1Cn1cc(N2C(=O)C(Cc3ccccc3)N(C)C2=O)cn1` (stereo not shown) [Example 10-42, 5-benzyl-3-(1-((3,5-dimethylisoxazol-4-yl)methyl)-1H-pyrazol-4-yl)-1-methylimidazolidine-2,4-dione], the IC50 by setting is: under setting [3], 0.15 µM; under setting [1], 0.017 µM.
The like results for `Cc1noc(C)c1Cn1cc(N2C(=O)C(C)N(Cc3ccccc3)C2=O)cn1` (stereo not shown) [Example 10-43, 1-benzyl-3-(1-((3,5-dimethylisoxazol-4-yl)methyl)-1′-1-pyrazol-4-yl)-5-methylimidazolidine-2,4-dione] were, in that order, 0.02 µM and 0.02 µM.
As for `Cc1noc(C)c1Cn1cc(N2C(=O)NC(CCc3ccccc3)C2=O)cn1` (stereo not shown) [Example 10-45, 3-(1-((3,5-dimethylisoxazol-4-yl)methyl)-1H-pyrazol-4-yl)-5-phenethylimidazolidine-2,4-dione], the IC50 was 0.22 µM under setting [3] and 0.793 µM under setting [1].
Regarding `Cc1noc(C)c1Cn1cc(N2C(=O)NC(CCCc3ccccc3)C2=O)cn1` (stereo not shown) [Example 10-46, 3-(1-((3,5-dimethylisoxazol-4-yl)methyl)-1H-pyrazol-4-yl)-5-(3-phenylpropyl)imidazolidine-2,4-dione], the IC50 reads like this: under setting [3], 0.17 µM; under setting [1], 0.484 µM.
In the case of `Cc1noc(C)c1Cn1cc(N2C(=O)NC(COCc3ccccc3)C2=O)cn1` (stereo not shown) [Example 10-47, 5-(benzyloxymethyl)-3-(1-((3,5-dimethylisoxazol-4-yl)methyl)-1H-pyrazol-4-yl)imidazolidine-2,4-dione], the IC50 is, setting by setting: under setting [3], 0.76 µM; under setting [1], 0.766 µM.
As to `Cc1noc(C)c1Cn1cc(N2C(=O)NC(CC(=O)Nc3ccccc3)C2=O)cn1` (stereo not shown) [Example 10-48, 2-(1-(1-((3,5-dimethylisoxazol-4-yl)methyl)-1H-pyrazol-4-yl)-2,5-dioxoimidazolidin-4-yl)-N-phenylacetamide], the IC50 turned out to be 0.75 µM under setting [3] and 0.747 µM under setting [1].
For `Cc1noc(C)c1Cn1cc(N2C(=O)NC(CC(=O)NCc3ccccc3)C2=O)cn1` (stereo not shown) [Example 10-49, N-benzyl-2-(1-(1-((3,5-dimethylisoxazol-4-yl)methyl)-1H-pyrazol-4-yl)-2,5-dioxoimidazolidin-4-yl)acetamide], the IC50 under setting [3] stood at 1.3 µM and the IC50 under setting [1] was 1.33 µM.
The like results for `COc1cccc(CNC(=O)CC2NC(=O)N(c3cnn(Cc4c(C)noc4C)c3)C2=O)c1` (stereo not shown) [Example 10-50, 2-(1-(1-((3,5-dimethylisoxazol-4-yl)methyl)-1H-pyrazol-4-yl)-2,5-dioxoimidazolidin-4-yl)-N-(3-methoxybenzyl)acetamide] were, in that order, 1.7 µM and 1.77 µM.
With `Cc1noc(C)c1Cn1cc(N2C(=O)CN(C)C2=O)cn1` [Example 10-51, 3-(1-((3,5-dimethylisoxazol-4-yl)methyl)-1H-pyrazol-4-yl)-1-methylimidazolidine-2,4-dione], the IC50 under setting [3] turned out to be 0.58 µM and the IC50 under setting [1] is 0.966 µM.
With `Cc1noc(C)c1Cn1cc(N2C(=O)N(C)C(C)(C)C2=O)cn1` [Example 10-52, 3-(1-((3,5-dimethylisoxazol-4-yl)methyl)-1H-pyrazol-4-yl)-1,5,5-trimethylimidazolidine-2,4-dione], the IC50 by setting is: under setting [3], 0.8 µM; under setting [1], 0.81 µM.
The like results for `Cc1noc(C)c1Cn1cc(N2C(=O)CN(Cc3ccccc3)C2=O)cn1` [Example 10-53, 1-benzyl-3-(1-((3,5-dimethylisoxazol-4-yl)methyl)-1H-pyrazol-4-yl)imidazolidine-2,4-dione] were, in that order, 0.09 µM and 0.257 µM.
Regarding `Cc1noc(C)c1Cn1cc(N2C(=O)CN(Cc3ccccn3)C2=O)cn1` [Example 10-54, 3-(1-((3,5-dimethylisoxazol-4-yl)methyl)-1H-pyrazol-4-yl)-1-(pyridin-2-ylmethyl)imidazolidine-2,4-dione], the IC50 under setting [3] turned out to be 0.68 µM and the IC50 under setting [1] is 0.609 µM.
The like results for `Cc1noc(C)c1CN1CC(=O)N(c2cnn(Cc3c(C)noc3C)c2)C1=O` [Example 10-55, 1-((3,5-dimethylisoxazol-4-yl)methyl)-3-(1-((3,5-dimethylisoxazol-4-yl)methyl)-1H-pyrazol-4-yl)imidazolidine-2,4-dione] were, in that order, 0.04 µM and 0.479 µM.
With `COc1cccc(CC2NC(=O)N(c3cnn(Cc4c(C)noc4C)c3)C2=O)c1` (stereo not shown) [Example 10-56, 3-(1-((3,5-dimethylisoxazol-4-yl)methyl)-1H-pyrazol-4-yl)-5-(3-methoxybenzyl)imidazolidine-2,4-dione], the IC50 was found to be 0.13 µM under setting [3] and 0.131 µM under setting [1].
With `Cc1noc(C)c1Cn1cc(N2C(=O)NC(CC3CCCCC3)C2=O)cn1` (stereo not shown) [Example 10-57, 5-(cyclohexylmethyl)-3-(1-((3,5-dimethylisoxazol-4-yl)methyl)-1H-pyrazol-4-yl)imidazolidine-2,4-dione], the IC50 worked out at 0.96 µM under setting [3] and 0.962 µM under setting [1].
On the same counts, the results for `Cc1noc(C)c1Cn1cc(N2C(=O)NC(CC3CCCC3)C2=O)cn1` (stereo not shown) [Example 10-58, 5-(cyclopentylmethyl)-3-(1-((3,5-dimethylisoxazol-4-yl)methyl)-1H-pyrazol-4-yl)imidazolidine-2,4-dione] are 0.31 µM and 0.316 µM.
Consider `Cc1noc(C)c1Cn1cc(N2C(=O)NC(Cc3ccc(O)cc3)C2=O)cn1` (stereo not shown) [Example 10-59, 3-(1-((3,5-dimethylisoxazol-4-yl)methyl)-1H-pyrazol-4-yl)-5-(4-hydroxybenzyl)imidazolidine-2,4-dione], for which the IC50 was 0.33 µM under setting [3] and 0.327 µM under setting [1].
`Cc1noc(C)c1Cn1cc(N2C(=O)NC(Cc3ccc(O)c(O)c3)C2=O)cn1` (stereo not shown) [Example 10-60, 5-(3,4-dihydroxybenzyl)-3-(1-((3,5-dimethylisoxazol-4-yl)methyl)-1H-pyrazol-4-yl)imidazolidine-2,4-dione]: the IC50 under setting [3] amounted to 0.51 µM and the IC50 under setting [1] worked out at 0.513 µM.
The like results for `Cc1noc(C)c1Cn1cc(N2C(=O)NC(CC(C)C)C2=O)cn1` (stereo not shown) [Example 10-61, 3-(1-((3,5-dimethylisoxazol-4-yl)methyl)-1H-pyrazol-4-yl)-5-isobutylimidazolidine-2,4-dione] were, in that order, 1 µM and 0.912 µM.
On the same counts, the results for `Cc1noc(C)c1Cn1cc(N2C(=O)NC(C(C)C)C2=O)cn1` (stereo not shown) [Example 10-62, 3-(1-((3,5-dimethylisoxazol-4-yl)methyl)-1H-pyrazol-4-yl)-5-isopropylimidazolidine-2,4-dione] are 1.1 µM and 1.44 µM.
Take `Cc1noc(C)c1Cn1cc(N2C(=O)N/C(=C\c3ccccc3)C2=O)cn1` [Example 10-63, (Z)-5-benzylidene-3-(1-((3,5-dimethylisoxazol-4-yl)methyl)-1H-pyrazol-4-yl)imidazolidine-2,4-dione]: the IC50 under setting [3] was determined as 0.34 µM.
In the case of `Cc1noc(C)c1Cn1cc(-n2c(=O)n(C)n(CCc3ccc(F)cc3)c2=O)cn1` [Example 10-66, 4-(1-((3,5-dimethylisoxazol-4-yl)methyl)-1H-pyrazol-4-yl)-1-(4-fluorophenethyl)-2-methyl-1,2,4-triazolidine-3,5-dione], the IC50 amounted to 0.01 µM under setting [3] and 0.012 µM under setting [1].
On to `Cc1noc(C)c1Cn1cc(-n2c(=O)n(C)n(CCOc3ccccc3)c2=O)cn1` [Example 10-67, 4-(1-((3,5-dimethylisoxazol-4-yl)methyl)-1H-pyrazol-4-yl)-1-methyl-2-(2-phenoxyethyl)-1,2,4-triazolidine-3,5-dione], for which the IC50 under setting [3] was found to be 0.031 µM.
Regarding `Cc1noc(C)c1Cn1cc(-n2c(=O)n(C)n(C)c2=O)cn1` [Example 10-69, 4-(1-((3,5-dimethylisoxazol-4-yl)methyl)-1H-pyrazol-4-yl)-1,2-dimethyl-1,2,4-triazolidine-3,5-dione], the IC50 under setting [3] amounted to 0.6 µM and the IC50 under setting [1] was 0.707 µM.
For `Cc1noc(C)c1Cn1cc(-n2c(=O)n(Cc3ccccc3)n(Cc3ccccc3)c2=O)cn1` [Example 10-70, 1,2-dibenzyl-4-(1-((3,5-dimethylisoxazol-4-yl)methyl)-1H-pyrazol-4-yl)-1,2,4-triazolidine-3,5-dione], the IC50 under setting [3] was determined as 0.8 µM and the IC50 under setting [1] worked out at 1.8 µM.

For the origin of these results see patent US9247759B2, “Identification of human T2R receptors that respond to bitter compounds that elicit the bitter taste in compositions, and the use thereof in assays to identify compounds that inhibit (block) bitter taste in compositions and use thereof” (SENOMYX, INC., priority 2007, dated 2016).
